Test results as given in the supplement of paper PMC10307832.

Compound: C=CCn1c(=O)c2cnc(Nc3ccc(N4CCN(C)CC4)cc3)nc2n1-c1cccc(C(C)(C)O)n1 [Adavosertib] + Cc1nc(NC(=O)N2CCC[C@H]2C(N)=O)sc1-c1ccnc(C(C)(C)C(F)(F)F)c1 [Alpelisib] (partner 2 µM)
Experiment: relative viability (nuclei count vs DMSO), 5 days (fraction); higher = more cells survive
Settings: first compound 0.01 µM
Procedure, shortened: (§1)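 Medians of duplicate plates are given as relative viability. That measure is the nuclei count in treated wells divided by the count in vehicle wells. Counts were taken on 4× images of lung cancer cell lines in 1536-well plates, 5 days after pin-tool dosing the day after seeding with one drug alone or a fixed anchor-drug dose plus five library-drug doses (not always all listed) in √10 steps.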

Row | Cell Line | relative viability
1 | NCI-H441 | 0.807
2 | NCI-H460 | 0.543
3 | NCI-H520 | 0.884
4 | NCI-H596 | 0.51
5 | NCI-H647 | 1.1
6 | NCI-H650 | 1.15
7 | NCI-H661 | 0.492
8 | NCI-H727 | 0.545
9 | NCI-H838 | 1.01
10 | NCI-H1355 | 0.878
11 | NCI-H1395 | 0.975
12 | NCI-H1437 | 1.01
13 | NCI-H1651 | 0.833
14 | NCI-H1666 | 0.85
15 | NCI-H1734 | 0.728
16 | NCI-H1755 | 0.983
17 | NCI-H1792 | 0.67

Row | Cell Line | relative viability
18 | NCI-H1793 | 0.746
19 | NCI-H1915 | 1.07
20 | NCI-H1944 | 0.822
21 | NCI-H1975 | 0.736
22 | NCI-H1993 | 0.733
23 | NCI-H2009 | 1.13
24 | NCI-H2023 | 0.512
25 | NCI-H2085 | 1.02
26 | NCI-H2087 | 1.11
27 | NCI-H2126 | 0.75
28 | NCI-H2228 | 0.839
29 | NCI-H2347 | 1.06
30 | NCI-H2405 | 0.765
31 | NCI-H3122 | 0.763
32 | PC-3 [JPC-3] | 0.99
33 | PC-14 | 0.944
34 | RERF-LC-KJ | 0.855

Same assay, conditions: first compound 0.03162 µM

Row | Cell Line | relative viability
35 | NCI-H441 | 0.745
36 | NCI-H460 | 0.518
37 | NCI-H520 | 0.887
38 | NCI-H596 | 0.464
39 | NCI-H647 | 1.1
40 | NCI-H650 | 1.1
41 | NCI-H661 | 0.968
42 | NCI-H727 | 0.593
43 | NCI-H838 | 1.01
44 | NCI-H1355 | 0.84
45 | NCI-H1395 | 1.1
46 | NCI-H1437 | 1.02
47 | NCI-H1651 | 1.06
48 | NCI-H1666 | 0.889
49 | NCI-H1734 | 0.69
50 | NCI-H1755 | 0.859
51 | NCI-H1792 | 0.649

Row | Cell Line | relative viability
52 | NCI-H1793 | 0.6
53 | NCI-H1915 | 1.07
54 | NCI-H1944 | 0.774
55 | NCI-H1975 | 0.63
56 | NCI-H1993 | 0.65
57 | NCI-H2009 | 1.22
58 | NCI-H2023 | 0.602
59 | NCI-H2085 | 0.993
60 | NCI-H2087 | 1.07
61 | NCI-H2126 | 0.767
62 | NCI-H2228 | 0.694
63 | NCI-H2347 | 1.02
64 | NCI-H2405 | 0.878
65 | NCI-H3122 | 0.656
66 | PC-3 [JPC-3] | 1.03
67 | PC-14 | 0.883
68 | RERF-LC-KJ | 0.784

Same assay, conditions: first compound 0.1 µM

Row | Cell Line | relative viability
69 | NCI-H441 | 0.764
70 | NCI-H460 | 0.374
71 | NCI-H520 | 1.03
72 | NCI-H596 | 0.457
73 | NCI-H647 | 1.02
74 | NCI-H650 | 1.17
75 | NCI-H661 | 0.503
76 | NCI-H727 | 0.629
77 | NCI-H838 | 0.996
78 | NCI-H1355 | 0.777
79 | NCI-H1395 | 1.03
80 | NCI-H1437 | 0.897
81 | NCI-H1651 | 0.936
82 | NCI-H1666 | 0.934
83 | NCI-H1734 | 0.707
84 | NCI-H1755 | 0.856
85 | NCI-H1792 | 0.697

Row | Cell Line | relative viability
86 | NCI-H1793 | 0.752
87 | NCI-H1915 | 1.13
88 | NCI-H1944 | 0.645
89 | NCI-H1975 | 0.546
90 | NCI-H1993 | 0.723
91 | NCI-H2009 | 1.13
92 | NCI-H2023 | 0.548
93 | NCI-H2085 | 0.969
94 | NCI-H2087 | 1.2
95 | NCI-H2126 | 0.675
96 | NCI-H2228 | 0.829
97 | NCI-H2347 | 1.04
98 | NCI-H2405 | 0.874
99 | NCI-H3122 | 0.83
100 | PC-3 [JPC-3] | 1.08
101 | PC-14 | 0.948
102 | RERF-LC-KJ | 0.764

Same assay, conditions: first compound 0.3162 µM

Row | Cell Line | relative viability
103 | NCI-H441 | 0.596
104 | NCI-H460 | 0.21
105 | NCI-H520 | 0.717
106 | NCI-H596 | 0.422
107 | NCI-H647 | 0.508
108 | NCI-H650 | 0.935
109 | NCI-H661 | 0.595
110 | NCI-H727 | 0.577
111 | NCI-H838 | 1.08
112 | NCI-H1355 | 0.751
113 | NCI-H1395 | 0.732
114 | NCI-H1437 | 0.977
115 | NCI-H1651 | 0.687
116 | NCI-H1666 | 0.796
117 | NCI-H1734 | 0.624
118 | NCI-H1755 | 0.868
119 | NCI-H1792 | 0.48

Row | Cell Line | relative viability
120 | NCI-H1793 | 0.637
121 | NCI-H1915 | 1.15
122 | NCI-H1944 | 0.666
123 | NCI-H1975 | 0.339
124 | NCI-H1993 | 0.68
125 | NCI-H2009 | 1.17
126 | NCI-H2023 | 0.39
127 | NCI-H2085 | 0.975
128 | NCI-H2087 | 0.944
129 | NCI-H2126 | 0.752
130 | NCI-H2228 | 0.343
131 | NCI-H2347 | 0.975
132 | NCI-H2405 | 0.764
133 | NCI-H3122 | 0.84
134 | PC-3 [JPC-3] | 1.07
135 | PC-14 | 0.493
136 | RERF-LC-KJ | 0.793

Compound: COc1nc(N)nc2c1ncn2[C@@H]1O[C@H](CO)[C@@H](O)[C@@H]1O [Nelarabine] + CC(=O)Nc1cccc(-n2c(=O)n(C3CC3)c(=O)c3c(Nc4ccc(I)cc4F)n(C)c(=O)c(C)c32)c1 [Trametinib] (partner 0.02 µM)
Experiment: as above
Settings: first compound 0.01 µM
Procedure, shortened: as §1

Row | Cell Line | relative viability
137 | NCI-H441 | 0.432
138 | NCI-H460 | 0.124
139 | NCI-H520 | 0.817
140 | NCI-H596 | 0.912
141 | NCI-H647 | 0.584
142 | NCI-H650 | 1.05
143 | NCI-H661 | 0.651
144 | NCI-H727 | 0.377
145 | NCI-H838 | 0.572
146 | NCI-H1355 | 0.451
147 | NCI-H1395 | 1.12
148 | NCI-H1437 | 0.637
149 | NCI-H1651 | 0.948
150 | NCI-H1666 | 0.82
151 | NCI-H1734 | 0.829
152 | NCI-H1755 | 0.852
153 | NCI-H1792 | 0.541
154 | NCI-H1793 | 0.474
155 | NCI-H1915 | 0.328
156 | NCI-H1944 | 0.448
157 | NCI-H1975 | 0.355
158 | NCI-H1993 | 0.531
159 | NCI-H2009 | 0.28
